Like-named read-outs stand apart in the source and are kept apart here.
Experiments:
[1] = Solution and suspension levels of terpenes in water
From the text: The terpene and water were blended in a household blender for 30 seconds.
Examples of these levels are as follows.

[2] = tested on: E. coli strain AW574; experiment: E. coli growth (O.D.) with single or combined terpenes; format: cell-based; conditions: single terpene 2 μMol; 24 hours
Experimental: E. coli strain AW574 was grown in tryptone broth to an exponential growth phase (O.D. between 0.4 and 1.0 at 590 nm). One tenth of this growth was inoculated to 10 ml of tryptone broth followed by the addition of individual terpenes or as indicated on Table 8; then incubated for 24 hours at 35-37° C., and the O.D. determined in each tube. The concentration of terpenes was 1 or 2 μMol. Each treatment was repeated in triplicate. The results are expressed as percentage bacterial growth as compared to the control treatment.
E. coli strain AW574 was grown in tryptone broth to an exponential growth phase (O.D. between 0.4 and 1.0 at 590 nm).
One tenth of this growth was inoculated to 10 ml of tryptone broth followed by the addition of individual terpenes or as indicated on Table 18; then incubated for 24 hours at 35-37° C. and the O.D. determined in each tube.
The concentration of terpenes was 1 or 2 μMol. Each treatment was repeated in triplicate.
The results are expressed as percentage bacterial growth as compared to the control treatment.

[3] = tested on: E. coli strains AW574 or AW405; experiment: Lysis of E. coli by terpenes (galactosidase activity, ONPG); format: cell-based
From the text: Lysis of the cell membrane was monitored by the determination of galactosidase activity. B-galactosidase is a well-characterized cytosolic enzyme in bacteria. This enzyme is inducible in the presence of isopropyl-1-thiogalactosidase (IPTG) and assayed calorimetrically with substrate o-nitro-phenyl-B-D-galactoside (ONPG). ONPG is cleaved to release o-nitrophenol which has a peak absorbance at 420 nm.
Since intact E. coli is impermeable to both ONPG and the enzyme, the cells have to be lysed prior to enzymatic assay. Therefore, the ability of terpenes to lyse E. coli can be measured with this enzymatic assay and compared to known lysing agents.
The procedure used was as follows: E. coli strains AW574 or AW405 were cultured overnight in 10 ml tryptone broth with […] at 35° C. Cells were allowed to grow after an absorbance equal to 0.9 was reached.
Cells were harvested, washed with phosphate buffer and resuspended to an absorbance equal to 0.5.
0.1 ml of the bacteria culture was added to 0.9 ml of buffer, warmed to 30° C., and then 80 μl of terpenes (85% terpenes and 15% polysorbate-80), 80 μl water (background), or 40 μl chloroform plus 40 μl 1% SDS in water (positive control) were added.
After the addition of the lysing agents the tubes were mixed for 10 seconds, and 0.2 ml of ONPG (4 mg/ml water) was added, then incubated for 5 minutes. The 5 enzyme activity was stopped with 0.5 ml of 1 M sodium carbonate. After being centrifuged for 3 minutes at 1,500×g, supernatant was transferred to cuvettes and read at 420 nm.
The relative degree of lysis caused by terpenes was calculated as follows: 100× (O.D. terpenes—O.D. water)/(O.D. chloroform—O.D. water).

[4] = tested on: erythrocytes; format: cell-based; conditions: 20 min
Experimental: These mixtures were incubated for 20 minutes.

[5] = Break down of terpenes in the presence of oxygen / potency of solution; format: physicochemical; conditions: 500 ppm solution
From the text: Terpenes will break down in the presence of oxygen. Citral, for example, is an aldehyde and will decay (oxygenate) over a period of days.

[6] = tested on: E. coli; conditions: cited from earlier work
[7] = tested on: Mycoplasma pneumoniae; experiment: Killing of Mycoplasma pneumoniae, color change of SP4 medium; format: cell-based; conditions: for killing effect (color change of first tube): three days after the 10-fold dilution
Experimental: This mixture was then used to make concentrations of 2500 ppm in sterile phosphate buffer saline (PBS) by blending the mixture in PBS for 40 seconds. […] PBS containing 25 ppm Tween® 80 or PBS alone was used to treat cells suspension as controls. […] After 40 hours of treatment, 10-fold serial dilution was performed to 10 (−10) by first taking 0.1 mL of the treated culture suspension was added into 0.9 mL of fresh SP4 (Whitcomb (1983); SP4 media is commercially available (Remel, Lenexa, Kans., USA)). All the tubes were then incubated at 37° C., and a color change of the medium was used for the indication of the cells that either were killed or survived from the treatment. Color change was from red to yellow because Mycoplasma pneumoniae produces acid during its growth. All the treatments were performed in duplicate.

[8] = 62.5, 125 and 250 ppm, 40 hours treatment

## C=C(C)C1CC=C(C)C(=O)C1 (stereo not shown) [Carvone]
[1]; true solution in water without surfactant, high shear mixing
  Level (maximum level of terpene solubilized, solution level): 500 ppm
[2]
  % growth (bacterial growth as compared to the control treatment): 63.00%
[3]; 404 μM
  Relative lysis %: 3.2%
[3]; 4,040 μM
  Relative lysis %: 22%
[3]; 40,400 μM
  Relative lysis %: 54%

## CC(C)=CCCC(C)=CC=O [Citral, 3,7-dimethyl-2,6-octadien-1-al]
[4]
  concentration that will lyse human erythrocytes: approximately 1000 ppm
[5]
  time in which the solution will lose half its potency: 2-3 weeks
[6]
  citral in growth media with bactericidal effect: 0.08%

## CC(C)=CCC/C(C)=C/CO [Geraniol]
[1]
  Level (maximum level of terpene solubilized, solution level): 500 ppm
[2]
  % growth (bacterial growth as compared to the control treatment): 54.00%
[3]; 3.63 μM
  Relative lysis %: 2.4%
[3]; 36.3 μM
  Relative lysis %: 4%
[3]; 363 μM
  Relative lysis %: 34%
[3]; 3,630 μM
  Relative lysis %: 98%
[3]; 36,300 μM
  Relative lysis %: 96%

## CC(=O)/C=C/C1=C(C)CCCC1(C)C [b-ionone]
[1]
  Level (maximum level of terpene solubilized, solution level): 500 ppm
[2]
  % growth (bacterial growth as compared to the control treatment): 84.00%
[7]; [8]
  killing effect (color change of first tube): killing effect
[7]; 62.5 ppm, 6 days after the 10-fold dilution
  tubes of the 10-fold dilution series that changed color: only the first tube
[7]; 125 and 250 ppm, 40 hours treatment, 6 days after the 10-fold dilution
  killing of all cells: may have completely killed all cells
[3]; 0.0308 μM
  Relative lysis %: 1.3%
[3]; 0.308 μM
  Relative lysis %: 4.78%
[3]; 3.08 μM
  Relative lysis %: 23%
[3]; 30.8 μM
  Relative lysis %: 44%
[3]; 308 μM
  Relative lysis %: 52%

## L-carvone
[7]; [8]
  killing effect (color change of first tube): no killing effects
[7]; 62.5, 125 and 250 ppm, 6 days after the 10-fold dilution
  tubes of the 10-fold dilution series that changed color: second and third tube

## Terpeniol
[1]
  Level (maximum level of terpene solubilized, solution level): 500 ppm
